Non-standard residues stand in square brackets, D forms with d. Residues, ends and D or L forms follow the SMILES beside them. *: point of attachment. DOTA = O=C(O)CN1CCN(CC(=O)O)CCN(CC(=O)*)CCN(CC(=O)O)CC1; Bpa = N[C@@H](Cc1ccc(C(=O)c2ccccc2)cc1)C(=O)O; Ala(4-thiazolyl) = N[C@@H](Cc1cscn1)C(=O)O; Phe(4-Cl) = N[C@@H](Cc1ccc(Cl)cc1)C(=O)O; d2Nal = N[C@H](Cc1ccc2ccccc2c1)C(=O)O; d3Pal = N[C@H](Cc1cccnc1)C(=O)O; azaGly = NNC(=O)O; Sar = CNCC(=O)O
Test system: LHRH binding sites on human ovarian cancer cells (EFO-27)
Conditions: not given
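Also: Cell-associated radioactivity on confluent EFO-27 monolayers in 96-well plates, measured by microplate scintillation counting.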

`N=C(N)NCCC[C@H](NC(=O)[C@H](N)Cc1ccc2ccccc2c1)C(=O)N[C@@H](Cc1c[nH]c2ccccc12)C(=O)N[C@@H](CO)C(=O)N[C@@H](Cc1c[nH]cn1)C(=O)N[C@H](CCCNC(=N)N)C(=O)N[C@@H](Cc1c[nH]c2ccccc12)C(=O)N[C@@H](Cc1ccc(C(=O)c2ccccc2)cc1)C(=O)N1CCC[C@H]1C(=O)NCCOCCNC(=O)CN1CCN(CC(=O)O)CCN(CC(=O)O)CCN(CC(=O)O)CC1` [BRU-2991] and `N=C(N)NCCC[C@H](NC(=O)[C@H](N)Cc1ccc2ccccc2c1)C(=O)N[C@@H](Cc1c[nH]c2ccccc12)C(=O)N[C@@H](CO)C(=O)N[C@@H](Cc1c[nH]cn1)C(=O)N[C@H](CCCNC(=N)N)C(=O)N[C@@H](Cc1c[nH]c2ccccc12)C(=O)N[C@@H](Cc1ccc(C(=O)c2ccccc2)cc1)C(=O)N1CCC[C@H]1C(=O)NCCCCNC(=O)CN1CCN(CC(=O)O)CCN(CC(=O)O)CCN(CC(=O)O)CC1` [compound 3042] cannot be ordered by EC50: no more than 200 nM for the first, 200 nM for the second.

`CNCC(=O)N[C@@H](CCCNC(=N)N)C(=O)N[C@@H](Cc1c[nH]c2ccccc12)C(=O)N[C@@H](CO)C(=O)N[C@@H](Cc1c[nH]cn1)C(=O)N[C@H](CCCNC(=N)N)C(=O)N[C@@H](Cc1c[nH]c2ccccc12)C(=O)N[C@@H](Cc1ccc(C(=O)c2ccccc2)cc1)C(=O)N1CCC[C@H]1C(=O)NCCCCCNC(=O)CN1CCN(CC(=O)O)CCN(CC(=O)O)CCN(CC(=O)O)CC1` [BRU-3085] and `CNCC(=O)N[C@@H](CCCNC(=N)N)C(=O)N[C@@H](Cc1c[nH]c2ccccc12)C(=O)N[C@@H](CO)C(=O)N[C@@H](Cc1c[nH]cn1)C(=O)N[C@H](CCCNC(=N)N)C(=O)N[C@@H](Cc1c[nH]c2ccccc12)C(=O)N[C@@H](Cc1ccc(C(=O)c2ccccc2)cc1)C(=O)N1CCC[C@H]1C(=O)NCCOCCOCCNC(=O)CN1CCN(CC(=O)O)CCN(CC(=O)O)CCN(CC(=O)O)CC1` [compound 3043] cannot be ordered by EC50: 230 to 500 nM for the first, 330 ± 180 nM for the second.

`CN(CC(=O)N[C@@H](Cc1c[nH]cn1)C(=O)N[C@@H](Cc1c[nH]c2ccccc12)C(=O)N[C@@H](CO)C(=O)N[C@@H](Cc1c[nH]cn1)C(=O)N[C@H](Cc1cccnc1)C(=O)N[C@@H](Cc1c[nH]c2ccccc12)C(=O)N[C@@H](Cc1ccc(C(=O)c2ccccc2)cc1)C(=O)N1CCC[C@H]1C(=O)NNC(N)=O)C(=O)CN1CCN(CC(=O)O)CCN(CC(=O)O)CCN(CC(=O)O)CC1` [compound 2673] ({DOTA}-[Sar]HWSH[d3Pal]W[Bpa]P[azaGly]-NH2) and `CN(CC(=O)N[C@@H](Cc1cscn1)C(=O)N[C@@H](Cc1c[nH]c2ccccc12)C(=O)N[C@@H](CO)C(=O)N[C@@H](Cc1c[nH]cn1)C(=O)N[C@H](CCCNC(=N)N)C(=O)N[C@@H](Cc1c[nH]c2ccccc12)C(=O)N[C@@H](Cc1ccc(C(=O)c2ccccc2)cc1)C(=O)N1CCC[C@H]1C(=O)NNC(N)=O)C(=O)CN1CCN(CC(=O)O)CCN(CC(=O)O)CCN(CC(=O)O)CC1` [BRU-2768] ({DOTA}-[Sar][Ala(4-thiazolyl)]WSH[dR]W[Bpa]P[azaGly]-NH2) are within 1.5-fold of each other in EC50: 12300 nM for the first, 12800 nM for the second.

First: CN(CC(=O)N[C@@H](Cc1ccc(Cl)cc1)C(=O)N[C@@H](Cc1c[nH]c2ccccc12)C(=O)N[C@@H](CO)C(=O)N[C@@H](Cc1c[nH]cn1)C(=O)N[C@H](CCCNC(=N)N)C(=O)N[C@@H](Cc1c[nH]c2ccccc12)C(=O)N[C@@H](Cc1ccc(C(=O)c2ccccc2)cc1)C(=O)N1CCC[C@H]1C(=O)NNC(N)=O)C(=O)CN1CCN(CC(=O)O)CCN(CC(=O)O)CCN(CC(=O)O)CC1 [BRU-2719] ({DOTA}-[Sar][Phe(4-Cl)]WSH[dR]W[Bpa]P[azaGly]-NH2)
Second: CN(CC(=O)N[C@@H](Cc1c[nH]cn1)C(=O)N[C@@H](Cc1c[nH]c2ccccc12)C(=O)N[C@@H](CO)C(=O)N[C@@H](Cc1c[nH]cn1)C(=O)N[C@H](CCCNC(=N)N)C(=O)N[C@@H](Cc1c[nH]c2ccccc12)C(=O)N[C@@H](Cc1ccc(Cl)cc1)C(=O)N1CCC[C@H]1C(=O)NNC(N)=O)C(=O)CN1CCN(CC(=O)O)CCN(CC(=O)O)CCN(CC(=O)O)CC1 [BRU-2725]
The EC50 of the first is 3.6-fold lower: 630 nM for the first, 2260 nM for the second.

`CN(CC(=O)N[C@@H](Cc1c[nH]cn1)C(=O)N[C@@H](Cc1c[nH]c2ccccc12)C(=O)N[C@@H](CO)C(=O)N[C@@H](Cc1c[nH]cn1)C(=O)N[C@H](CCCNC(=N)N)C(=O)N[C@@H](Cc1c[nH]c2ccccc12)C(=O)N[C@@H](Cc1cccc2ccccc12)C(=O)N1CCC[C@H]1C(=O)NNC(N)=O)C(=O)CN1CCN(CC(=O)O)CCN(CC(=O)O)CCN(CC(=O)O)CC1` [BRU-2720] and `CN(C(=O)CN1CCN(CC(=O)O)CCN(CC(=O)O)CCN(CC(=O)O)CC1)[C@H](Cc1ccc2ccccc2c1)C(=O)N[C@@H](Cc1c[nH]cn1)C(=O)N[C@@H](Cc1c[nH]c2ccccc12)C(=O)N[C@@H](CO)C(=O)N[C@@H](Cc1c[nH]cn1)C(=O)N[C@H](CCCNC(=N)N)C(=O)N[C@@H](Cc1c[nH]c2ccccc12)C(=O)N[C@@H](Cc1ccc(C(=O)c2ccccc2)cc1)C(=O)N1CCC[C@H]1C(=O)NNC(N)=O` [BRU-3003] are within 1.5-fold of each other in EC50: 540 nM for the first, 760 nM for the second.

Compared with `CNCC(=O)N[C@@H](CCCNC(=N)N)C(=O)N[C@@H](Cc1c[nH]c2ccccc12)C(=O)N[C@@H](CO)C(=O)N[C@@H](Cc1c[nH]cn1)C(=O)N[C@H](CCCNC(=N)N)C(=O)N[C@@H](Cc1c[nH]c2ccccc12)C(=O)N[C@@H](Cc1ccc(C(=O)c2ccccc2)cc1)C(=O)N1CCC[C@H]1C(=O)NCCCN1CCN(CCCNC(=O)CN2CCN(CC(=O)O)CCN(CC(=O)O)CCN(CC(=O)O)CC2)CC1` [compound 3044], `CCNC(=O)[C@@H]1CCCN1C(=O)[C@H](Cc1ccc(C(=O)c2ccccc2)cc1)NC(=O)[C@H](Cc1c[nH]c2ccccc12)NC(=O)[C@@H](CCCNC(=N)N)NC(=O)[C@H](Cc1c[nH]cn1)NC(=O)[C@H](CO)NC(=O)[C@H](Cc1c[nH]c2ccccc12)NC(=O)[C@H](CCCNC(=N)N)NC(=O)[C@@H](Cc1ccc2ccccc2c1)NC(=O)CN1CCN(CC(=O)O)CCN(CC(=O)O)CCN(CC(=O)O)CC1` [compound 2981] is 4-fold higher in EC50: 240 ± 80 nM for the first, 970 nM for the second. The first is the more potent here.

In the case of `CC(C)C[C@H](NC(=O)[C@H](CCCNC(=N)N)NC(=O)[C@@H](Cc1ccc2ccccc2c1)NC(=O)CN1CCN(CC(=O)O)CCN(CC(=O)O)CCN(CC(=O)O)CC1)C(=O)N[C@@H](CO)C(=O)N[C@@H](Cc1c[nH]cn1)C(=O)N[C@H](CCCNC(=N)N)C(=O)N[C@@H](Cc1c[nH]c2ccccc12)C(=O)N[C@@H](Cc1ccc(C(=O)c2ccccc2)cc1)C(=O)N1CCC[C@H]1C(=O)NNC(N)=O` [compound 3108] ({DOTA}-[d2Nal]RLSH[dR]W[Bpa]P[azaGly]-NH2), the EC50 is reported as 560 nM.

Same assay, conditions: EFO-27 cells, competition with [125I-Tyr8]BRU-2477, 90 min

`N=C(N)NCCC[C@H](NC(=O)[C@@H](Cc1ccc2ccccc2c1)NC(=O)CN1CCN(CC(=O)O)CCN(CC(=O)O)CCN(CC(=O)O)CC1)C(=O)N[C@@H](Cc1c[nH]c2ccccc12)C(=O)N[C@@H](CO)C(=O)N[C@@H](Cc1c[nH]cn1)C(=O)N[C@H](CCCNC(=N)N)C(=O)N[C@@H](Cc1c[nH]c2ccccc12)C(=O)N[C@@H](Cc1ccc(C(=O)c2ccccc2)cc1)C(=O)N1CCC[C@H]1C(=O)NCC(=O)N[C@@H](CCC(N)=O)C(N)=O` [compound 2971] ({DOTA}-[d2Nal]RWSH[dR]W[Bpa]PGQ-NH2) and `N=C(N)NCCC[C@H](NC(=O)[C@H](Cc1ccc2ccccc2c1)NC(=O)CN1CCN(CC(=O)O)CCN(CC(=O)O)CCN(CC(=O)O)CC1)C(=O)N[C@@H](Cc1c[nH]c2ccccc12)C(=O)N[C@@H](CO)C(=O)N[C@@H](Cc1c[nH]cn1)C(=O)N[C@H](CCCNC(=N)N)C(=O)N[C@@H](Cc1c[nH]c2ccccc12)C(=O)N[C@@H](Cc1ccc(C(=O)c2ccccc2)cc1)C(=O)N1CCC[C@H]1C(=O)NNC(N)=O` [BRU-3051] are within 1.5-fold of each other in EC50: 490 nM for the first, 620 nM for the second.

`CCN=C(NCC)NCCCC[C@@H](NC(=O)[C@H](Cc1c[nH]cn1)NC(=O)[C@H](CO)NC(=O)[C@H](Cc1c[nH]c2ccccc12)NC(=O)[C@H](Cc1c[nH]cn1)NC(=O)CN(C)C(=O)CN1CCN(CC(=O)O)CCN(CC(=O)O)CCN(CC(=O)O)CC1)C(=O)N[C@@H](Cc1c[nH]c2ccccc12)C(=O)N[C@@H](Cc1ccc(C(=O)c2ccccc2)cc1)C(=O)N1CCC[C@H]1C(=O)NNC(N)=O` [BRU-2880] was tested, and the EC50 was 8020 nM.

Same assay, conditions: Table 5: modifications of amino acids at positions 1 and 2; in vitro binding on EFO-27 cells

Compared with `C[C@@H](C(=O)N[C@@H](Cc1c[nH]cn1)C(=O)N[C@@H](Cc1c[nH]c2ccccc12)C(=O)N[C@@H](CO)C(=O)N[C@@H](Cc1c[nH]cn1)C(=O)N[C@H](CCCNC(=N)N)C(=O)N[C@@H](Cc1c[nH]c2ccccc12)C(=O)N[C@@H](Cc1ccc(C(=O)c2ccccc2)cc1)C(=O)N1CCC[C@H]1C(=O)NNC(N)=O)N(C)C(=O)CN1CCN(CC(=O)O)CCN(CC(=O)O)CCN(CC(=O)O)CC1` [BRU-2736], `CCN(CC(=O)N[C@@H](Cc1c[nH]cn1)C(=O)N[C@@H](Cc1c[nH]c2ccccc12)C(=O)N[C@@H](CO)C(=O)N[C@@H](Cc1c[nH]cn1)C(=O)N[C@H](CCCNC(=N)N)C(=O)N[C@@H](Cc1c[nH]c2ccccc12)C(=O)N[C@@H](Cc1ccc(C(=O)c2ccccc2)cc1)C(=O)N1CCC[C@H]1C(=O)NNC(N)=O)C(=O)CN1CCN(CC(=O)O)CCN(CC(=O)O)CCN(CC(=O)O)CC1` [BRU-2788] is 6.8-fold lower in EC50: 1420 nM for the first, 210 nM for the second. The second is the more potent here.

First: CN(CC(=O)N[C@@H](Cc1cn(C)cn1)C(=O)N[C@@H](Cc1c[nH]c2ccccc12)C(=O)N[C@@H](CO)C(=O)N[C@@H](Cc1c[nH]cn1)C(=O)N[C@H](CCCNC(=N)N)C(=O)N[C@@H](Cc1c[nH]c2ccccc12)C(=O)N[C@@H](Cc1ccc(C(=O)c2ccccc2)cc1)C(=O)N1CCC[C@H]1C(=O)NNC(N)=O)C(=O)CN1CCN(CC(=O)O)CCN(CC(=O)O)CCN(CC(=O)O)CC1 [BRU-2741]
Second: CN(CC(=O)N[C@@H](CCCNC(=N)N)C(=O)N[C@@H](Cc1c[nH]c2ccccc12)C(=O)N[C@@H](CO)C(=O)N[C@@H](Cc1c[nH]cn1)C(=O)N[C@H](CCCNC(=N)N)C(=O)N[C@@H](Cc1c[nH]c2ccccc12)C(=O)N[C@@H](Cc1ccc(C(=O)c2ccccc2)cc1)C(=O)N1CCC[C@H]1C(=O)NNC(N)=O)C(=O)CN1CCN(CC(=O)O)CCN(CC(=O)O)CCN(CC(=O)O)CC1 [BRU-2817]
The EC50 of the first is 1.8-fold higher: 2990 nM for the first, 1700 nM for the second. The second is the more potent here.

Same assay, conditions: ratio of EC50 to BRU-2813 (EC50=0.33 μM)

In the case of `N=C(N)NCCC[C@H](NC(=O)[C@@H](Cc1ccc2ccccc2c1)NC(=O)CN1CCN(CC(=O)O)CCN(CC(=O)O)CCN(CC(=O)O)CC1)C(=O)N[C@@H](Cc1c[nH]c2ccccc12)C(=O)N[C@@H](CO)C(=O)N[C@@H](Cc1c[nH]cn1)C(=O)N[C@H](CCCNC(=N)N)C(=O)N[C@@H](Cc1c[nH]c2ccccc12)C(=O)N[C@@H](Cc1ccc(C(=O)c2ccccc2)cc1)C(=O)N1C[C@H](c2ccccc2)C[C@H]1C(=O)NNC(N)=O` [BRU-2953], the “binding potency, times lower than BRU-2813” value is reported as 2.
